The melting point is the temperature of the solid-liquid transition.

`CNC(=O)n1cc(F)c(=O)[nH]c1=O` gave a melting point of 226 °C.
For the compound `O=C(Cl)c1ccsc1Br`, the melting point lay within 61 to 62 °C.
`CN(CCCN1c2ccccc2CCc2ccccc21)CC(=O)c1ccc(Cl)cc1` displayed a melting point of 105 °C.
The result for `O=C1c2ccccc2C(=O)C1c1ccc2ccccc2n1` reads 241 °C; that for `CC(C(=O)O)=C(C)c1cccc(C)c1`, 163 °C; that for `O=[N+]([O-])c1ccc(NN=C(Cc2ccccc2)C(Cc2ccccc2)=NNc2ccc([N+](=O)[O-])cc2)cc1`, 276 °C.
The result for `O=C(c1ccccc1O)N1CCOCC1` reads 175 °C.
The result for `CCOC(=O)c1nc(-c2ccc(S(=O)(=O)Cl)s2)no1` reads 114 to 115 °C.
`CN1CCOCC1` showed a melting point of -65 °C.
`CC(=O)c1ccc(CO)cc1` showed a melting point of 54 °C.
On to `CN1CCN(c2ccc(C(=O)O)cc2)CC1`, for which the melting point is 270 °C.
Regarding `O=[N+]([O-])c1cccc(Oc2ccccn2)c1`, the melting point is 93 to 95 °C.
For `S=C1SCCS1`, the melting point was determined as 35 °C.
The same measure for `COc1ccccc1P(CCP(c1ccccc1)c1ccccc1OC)c1ccccc1` (stereo not given): 102 to 104 °C; for `CNCCCC12CCC(c3ccccc31)c1ccccc12`: 92 °C; for `c1ccc(C2=NCCN2)cc1`: 96.5 °C.
The compound `COC(=O)c1ccc(C(=O)CC#N)cc1` registered a melting point of 170 to 174 °C.
Turning to `CC(=O)NC1C(Oc2ccc([N+](=O)[O-])cc2)OC(CO)C(O)C1O` (stereo not given), the melting point was 264 °C.
The compound `COc1cscc1C(=O)O` came in with a melting point of 105 to 108 °C.
The same measure for `NS(=O)(=O)C(F)(F)F`: 118 °C; for `O=C=Nc1cccs1`: 108 to 110 °C; for `CC(O)(c1ccccc1)c1ccccc1`: 80 °C.
In turn, `CCCCCc1ccc(S(=O)(=O)Cl)cc1` registered a melting point of 42 to 44 °C.
The same measure for `COc1cc(C=CC(=O)O)cc(OC)c1OC`: 127 °C.
The result for `N#Cc1cccc(N2CCCC2)n1` reads 73 to 74 °C.
The same measure for `CC(CNC(=O)c1ccccc1)C(=O)OCC(=O)C12OC(C)(C)OC1CC1C3CCC4=CC(=O)C=CC4(C)C3(F)C(O)CC12C` (stereo not given): 205 °C; for `O=S(=O)(Cl)c1ccc(C(F)(F)F)cc1`: 31 °C.
The compound `O=Cc1ccc(N2CCCCC2)nc1` returned a melting point of 43 °C.
The result for `CCCCCCCCCCCCCCCC(=O)c1ccccc1` reads 59 °C.
The result for `Cc1cc(NC(=O)C=CC(=O)O)no1` reads 165 to 172 °C.
On to `CC(/C=C(\C)c1ccc(-c2ccccc2)cc1)=NNS(=O)(=O)c1ccc(C)cc1`, for which the melting point lay within 132 to 134 °C.
For `O=Cc1csc2ccccc12`, the melting point fell in the range of 56 to 58 °C.
In the case of `OCc1cccc2c1OCCO2`, the melting point fell in the range of 54 to 55 °C.
The result for `CN(C)C=C[N+](=O)[O-]` reads 103 to 105 °C; that for `CC(C)C(N)CC(=O)O` (stereo not given), 206 to 209 °C; that for `CC(C)(C)C(=O)OCC(N)=S`, 84 to 85 °C.
As to `Cc1ccc(O)cc1Br`, the melting point came out at 56 °C.
The result for `C1CCC2NCCCC2C1` (stereo not given) reads 37.5 to 45 °C; that for `O=C1c2ccccc2CC2C=CC=CC12` (stereo not given), 152 °C; that for `Cn1ccc2c(C#N)cccc21`, 41 to 43 °C.
The same measure for `COc1ccc(C(=O)c2ccccc2C(=O)O)cc1`: 146 °C; for `CC(C)[Si](Cl)(Cl)Cl`: -87.7 °C.
For the compound `CC(C)c1cc(Oc2ccccc2)cc(C(C)C)c1NC(=S)NC(C)(C)C`, the melting point was 146 °C.
On to `CCCCCCCCCCCC(=O)OCCOC(=O)CCCCCCCCCCC`, for which the melting point turned out to be 56.6 °C.
The result for `CC(=O)c1ccc(OCCCCCBr)cc1O` reads 63 to 66 °C; that for `CC(C)c1cc(Cl)nc(N)n1`, 100 °C.
The result for `O=C1OC(c2cc(Br)c(O)c(Br)c2)(c2cc(Br)c(O)c(Br)c2)c2ccccc21` reads 296 °C.
`COc1ccc(OC)c(C=CC(=O)O)c1` gave a melting point of 147 to 150 °C.
The same measure for `Cc1cc(O)c(Cl)c(C)c1Cl`: 95.5 °C; for `CC(=Cc1ccccc1)c1ccccc1`: 82 °C.
As to `C=CCN=C(NCC=C)c1cc(C(C)(C)C)c(O)c(C(C)(C)C)c1`, the melting point is 201 to 202 °C.
The same measure for `O=c1cc(C(F)(F)F)c2ccc(O)cc2o1`: 179 to 182 °C; for `CCOC(=O)c1[nH]c2ccccc2c1C`: 130 to 133 °C.
Compound `COc1c(Cl)c(Cl)cc(Cl)c1Cl` showed a melting point of 88.5 °C.
Take `O=C(O)c1c(F)c(F)c(F)c(F)c1[N+](=O)[O-]`: the melting point lay in the range of 134 to 139 °C.
As to `Cn1c(=O)c(C2=NNC(=O)C2=Cc2ccccc2O)c(O)c2ccccc21`, the melting point amounted to 240 °C.
For `CCN(CCO)c1ccc(N=Nc2ccc([N+](=O)[O-])cc2)cc1`, the melting point is 161 °C.
`Cc1ccn2c(=O)c3ccccc3cc2c1` had a melting point of 124 °C.
`CNc1ccc2oc(CC3OC4(CCC3C)OC(C(C)C(=O)c3ccc[nH]3)C(C)CC4C)nc2c1C(=O)O` (stereo not given) gave a melting point of 182 °C.
The same measure for `CCC1=C(C)C2=CCC=CC2=N1`: 64 °C.
The same measure for `NNC(=O)C(F)(F)F`: 111 to 115 °C; for `O=C(c1cccs1)c1noc(-c2ccc(Br)cc2)c1S(=O)(=O)c1ccccc1`: 130 °C; for `O=C1CCSc2ccccc21`: 29 °C.
As for `O=C(O)c1cc(F)c(Cl)cc1Cl`, the melting point lay in the range of 141 to 144 °C.
In turn, `CC12CC1(C)C(=O)N(c1cc(Cl)cc(Cl)c1)C2=O` (stereo not given) showed a melting point of 166 °C.
In turn, `CCCCCCCCCCc1ccc(C(C)=O)cc1` displayed a melting point of 33 to 35 °C.
The same measure for `Nc1nccnc1C(=O)O`: 201 to 205 °C; for `Cc1cc(-c2ccc(N=C=O)c(C)c2)ccc1N=C=O`: 71 °C.
Compound `CC(=O)c1ccc(N=C=S)cc1` had a melting point of 82 to 85 °C.
As for `Cc1ncc(CO)c(N)n1`, the melting point is 198 °C.
In the case of `O=Cc1cc(O)ccc1[N+](=O)[O-]`, the melting point was found to be 167 °C.
For `O=C1c2ccc([N+](=O)[O-])cc2C(=O)N1CCCCCCBr`, the melting point was 83 to 85 °C.
The result for `FC(F)(F)c1cc(Br)c2nc[nH]c2c1` reads 218 to 220 °C; that for `O=C(Nc1c[nH]c(=O)[nH]c1=O)C(F)(F)C(F)(F)C(F)(F)C(F)(F)C(F)(F)C(F)(F)C(F)(F)C(F)(F)F`, 250 to 252 °C.
With `NS(=O)(=O)c1c(F)cc(F)cc1Br`, the melting point amounted to 126 °C.
In turn, `O=C1C=CC2C3C=CC(C3)C12` (stereo not given) had a melting point of 56 °C.
In turn, `NC(N)=NS(=O)(=O)c1ccc(N)cc1` returned a melting point of 192 °C.
For the compound `COc1c(C(C)(C)C)cc([N+](=O)[O-])c(C)c1[N+](=O)[O-]`, the melting point was 85 °C.
As to `CC1(C)CCCCC1=O`, the melting point was -20.5 °C.
The same measure for `O=Cc1ccc(-n2ccnc2)cc1`: 142 to 145 °C; for `CC(C(O)c1ccccc1)N(C)C` (stereo not given): 87.5 °C; for `OC(c1ccc(Cl)cc1)(c1cncnc1)c1ccccc1Cl` (stereo not given): 118 °C.
The same measure for `Cc1cc(Br)c[nH]c1=O`: 171 to 175 °C; for `C#Cc1ccc(F)cc1`: 28 °C.
On to `O=C(OCCc1ccc(CCOC(=O)c2ccc([N+](=O)[O-])cc2)cc1)c1ccc([N+](=O)[O-])cc1`, for which the melting point stood at 173 °C.
The same measure for `Clc1ccc(-c2ccc(Br)nc2)cn1`: 244 °C; for `CCOC`: -113 °C; for `CCN1CC2(COC)CCC(O)C34C5CC6C(OC)CC(O)(C5C6OC)C(O)(C(OC)C23)C14` (stereo not given): 214 °C.
The same measure for `CC(=O)C(=O)c1cc(C(=O)C(C)=O)c([N+](=O)[O-])cc1[N+](=O)[O-]`: 119 °C.
In the case of `CCCC[N+](=O)[O-]`, the melting point was -81.3 °C.
The result for `O=C1NC(CCO)C(=O)NC1CCO` (stereo not given) reads 188 to 192 °C; that for `CN1CC(Br)C(=O)NC1=O` (stereo not given), 153 to 155 °C.
With `Oc1ccc2ccncc2c1`, the melting point came out at 227 °C.
The same measure for `Cc1nc([N+](=O)[O-])cn1CCC(N)=NO`: 207 °C.
The result for `Cc1cc(Br)cc(Cl)c1O` reads 45 to 47 °C; that for `CCOc1cc(NC(C)=O)ccc1C(=O)OC`, 148 °C.
`O=Cc1cccc2c([N+](=O)[O-])cccc12`: the melting point turned out to be 136 °C.
As to `CCOC(=O)C1=C(C)NC(=O)NC1c1ccccc1Cl` (stereo not given), the melting point turned out to be 217 °C.
On to `CCOC(=O)C1CCN(c2ccc(C#N)cc2)CC1`, for which the melting point lay in the range of 67 to 68 °C.
The result for `CCCCOc1ccc(-c2nn(CCC#N)c(=S)[nH]2)cc1` reads 115 °C.
The result for `Oc1n[nH]c2nc3ccccc3nc12` reads 304 to 305 °C; that for `Cn1ncc2c(NCCOC(=O)c3cc([N+](=O)[O-])cc([N+](=O)[O-])c3)ncnc21`, 299 °C; that for `COC(=O)NC=Cc1ccc(C=CNC(=O)OC)cc1`, 360 °C.
The result for `CCN1CCN(C(=O)N[C@@H](C(=O)O)c2ccccc2)C(=O)C1=O` reads 171 °C.
Compound `COC(=O)C12ON1c1ccccc1C2=O` (stereo not given) registered a melting point of 221 °C.
On to `Cc1cc(C)c(C2Oc3c(Cl)c(Cl)c(Cl)c(Cl)c3O2)cc1C`, for which the melting point is 188 °C.
As to `O=[N+]([O-])c1ccc(S(=O)(=O)OCc2ccccc2OS(=O)(=O)c2ccc([N+](=O)[O-])cc2)cc1`, the melting point fell in the range of 204 to 206 °C.
In turn, `Clc1cccc2cccc(Cl)c12` displayed a melting point of 89 °C.
The same measure for `N#CC=P(c1ccccc1)(c1ccccc1)c1ccccc1`: 189 to 198 °C; for `Oc1cc(O)cc(Cl)c1`: 118 °C.
